From patent publication EP0040150A1, “Fluoromethylated tyrosine methyl ester” (MERRELL TORAUDE ET COMPAGNIE, priority 1980, dated 1981)

Tests used:
catecholamines = experiment: Catecholamine levels in rat brain and heart after dosing (HPLC with electrochemical detection); type: in vivo, rats; conditions: for selectivity (brain catecholamines versus heart catecholamines and 5-HT): compared with the methyl ester
Method: The animals are kept on a constant 12 hour day-night cycle, and body weights are measured daily. The animals are sacrificed by decapitation 12 to 24 hours after receiving the last dose of the test compound. Control animals receive the vehicle alone. Rats in single dose tests were fasted for 24 hours before administration of the test compound whilst rats in multiple dose tests were allowed free access to food and water. Immediately after death, the brain and heart (where appropriate) are removed and separately homogenized either by 50 ml phosphate buffer pH 6.8 for AADC determination or in icecold 0.4 M HC104 containing 0.05% (w/v) EDTA and 0.1% (w/v) sodium bisulfite for catecholamine determination. AADC activity is determined by the ^14C02 trapping method of J. Christenson, Archs. Biochem. Biophys. […] Catecholamines are determined by centrifuging the homogenate, adding the supernatant to alumina buffered to pH 8.0-8.4 to absorb the catecholamines, re-extracting the catecholamines from the alumina with 2.1 M HC104 and determining the catecholamines in the extracts using reversed-phase ion-pair HPLC with electrochemical detection.

[1] = molecular target: T1, aromatic amino acid decarboxylase (AADC) (Rattus norvegicus, UniProt P14173); experiment: AADC activity in rat organ homogenates after dosing (14CO2 trapping method, DL-[1-14C]-dopa as substrate); type: in vivo, rats
T1 construct: the brain and heart (where appropriate) are removed and separately homogenized; from tissue; host or cells: rat brain and heart homogenates
T1 sequence (P14173 1-480): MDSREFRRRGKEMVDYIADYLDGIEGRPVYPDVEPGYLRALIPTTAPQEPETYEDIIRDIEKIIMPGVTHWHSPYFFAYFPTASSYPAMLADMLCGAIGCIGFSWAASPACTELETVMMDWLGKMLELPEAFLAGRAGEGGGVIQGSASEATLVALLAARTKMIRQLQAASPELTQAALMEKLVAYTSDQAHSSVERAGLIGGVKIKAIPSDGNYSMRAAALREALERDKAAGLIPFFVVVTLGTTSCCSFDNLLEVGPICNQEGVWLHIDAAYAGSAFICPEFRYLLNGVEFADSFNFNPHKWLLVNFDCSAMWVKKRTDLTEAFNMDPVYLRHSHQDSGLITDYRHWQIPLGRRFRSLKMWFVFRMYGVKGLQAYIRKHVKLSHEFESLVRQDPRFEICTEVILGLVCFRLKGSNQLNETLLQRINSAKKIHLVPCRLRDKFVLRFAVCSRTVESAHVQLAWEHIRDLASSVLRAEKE
Method: (§1) The animals are kept on a constant 12 hour day-night cycle, and body weights are measured daily. The animals are sacrificed by decapitation 12 to 24 hours after receiving the last dose of the test compound. Control animals receive the vehicle alone. Rats in single dose tests were fasted for 24 hours before administration of the test compound whilst rats in multiple dose tests were allowed free access to food and water.
Immediately after death, the brain and heart (where appropriate) are removed and separately homogenized either by 50 ml phosphate buffer pH 6.8 for AADC determination or in icecold 0.4 M HC104 containing 0.05% (w/v) EDTA and 0.1% (w/v) sodium bisulfite for catecholamine determination. AADC activity is determined by the ^14C02 trapping method of J. Christenson, Archs. Biochem. Biophys. 141, 356 (1970) using DL-[1-14C] -dopa as the substrate. Catecholamines are determined by centrifuging the homogenate, adding the supernatant to alumina buffered to pH 8.0-8.4 to absorb the catecholamines, re-extracting the catecholamines from the alumina with 2.1 M HC104 and determining the catecholamines in the extracts using reversed-phase ion-pair HPLC with electrochemical detection.

Serotonin (5-HT) = Serotonin (5-HT) levels in rat organs after dosing (standard techniques); type: in vivo, rats
Method: as §1
In the brain, doses of 10 mg/kg and 200 mg/kg produced a 10% reduction and a 70-80% reduction of AADC activity, respectively. […] In the heart, no reduction of norepinephrine is noted up to a dose of 200 mg/kg. When tested after multiple administration of 10, 25, or 50 mg/kg given daily for six days in rats sacrificed 24 hours after the sixth dose, the compound produced a 50% decrease in brain norephinephrine at a dose of 10 mg/kg (daily). […] Serotonin (5-HT) levels, as assessed by standard techniques, are not altered in the brain even at the highest dose tested.

[2] = Stability of the compound; type: physicochemical
Solubility in water = type: physicochemical; conditions: neutral pH
AADC = molecular target: T2, AADC (Homo sapiens, UniProt P20711); experiment: AADC inhibition, general statement (method not given)
T2 sequence (P20711 1-480): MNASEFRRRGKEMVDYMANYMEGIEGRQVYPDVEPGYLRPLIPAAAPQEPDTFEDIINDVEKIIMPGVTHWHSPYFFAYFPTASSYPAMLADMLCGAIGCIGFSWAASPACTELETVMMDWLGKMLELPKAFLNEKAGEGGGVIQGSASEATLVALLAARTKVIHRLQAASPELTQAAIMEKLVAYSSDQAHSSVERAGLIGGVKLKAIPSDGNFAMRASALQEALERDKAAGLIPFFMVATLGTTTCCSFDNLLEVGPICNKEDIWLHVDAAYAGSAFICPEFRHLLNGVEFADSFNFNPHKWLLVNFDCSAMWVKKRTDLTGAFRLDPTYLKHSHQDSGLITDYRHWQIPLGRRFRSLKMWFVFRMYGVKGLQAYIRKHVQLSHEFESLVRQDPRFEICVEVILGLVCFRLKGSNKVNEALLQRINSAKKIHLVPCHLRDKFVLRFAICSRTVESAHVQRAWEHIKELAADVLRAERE

[3] = heart, up to a dose of 200 mg/kg

For `COC(=O)[C@@H]1[C@H]2C[C@H]3c4[nH]c5ccccc5c4CCN3C[C@@H]2CC[C@@H]1O` [Yohimbine, reference compound], which “metabolite MOPEG-sulfate” value (catecholamines; yohimbine alone) is on record?
Its value is “increase”.

And the norepinephrine (catecholamines; yohimbine alone)?
Its norepinephrine is “decrease”.

Which “inhibition of AADC activity” value ([1]; animals pretreated with haloperidol, compared with non-haloperidol treated animals) does the source give for `COC(=O)C(N)(CF)Cc1ccc(O)cc1` (centres unmarked) [methyl 2-amino-2-fluoromethyl-3-(4-hydroxyphenyl)propionate] here?
Its value is “more pronounced”.

What about the “extent of inhibition of AADC activity in the brain” value ([1]; brain, co-administration of -methyl tyrosine (inhibitor of tyrosine hydroxylase)) of the same compound?
Its value is “reduces the extent of inhibition”.

And the “AADC activity in the heart” value [1, 3]?
Its value is “not reduced significantly”.

What about the inhibition at 10 mg/kg ([1]; rat, brain, dose 10 mg/kg, read-out: reduction of AADC activity) of the same compound?
The inhibition at 10 mg/kg was 10%.

What about the “additional decrease of norepinephrine produced by yohimbine” value (catecholamines; animals treated for 2 weeks with 10 mg/kg methyl ester, same dose of yohimbine) of the same compound?
Its value is “no longer produces an additional decrease”.

And the “decrease in brain norephinephrine” value (catecholamines; brain, 10 mg/kg daily for six days, sacrificed 24 hours after the sixth dose)?
Its value is 50%.

And the Brain dopamine decreased (catecholamines; brain, 50 mg/kg daily for six days)?
The Brain dopamine decreased was 50%.

What about the Brain norepinephrine decreased (catecholamines; brain, dose 10 mg/kg) of the same compound?
Its Brain norepinephrine decreased is 15-20%.

And the dopamine decreased (catecholamines; brain, dose 50 mg/kg)?
The dopamine decreased was “decreased significantly”.

And the Brain norepinephrine decreased (catecholamines; brain, dose 200 mg/kg)?
The Brain norepinephrine decreased was 50%.

What about the dopamine decreased (catecholamines; brain, dose 200 mg/kg) of the same compound?
The dopamine decreased was 75%.

What about the “decrease in brain norephinephrine” value (catecholamines; brain, higher doses (25 or 50 mg/kg daily for six days) compared with 10 mg/kg) of the same compound?
Its value is “do not give an additional response”.

And the Brain dopamine (catecholamines; brain, lower doses (10, 25 mg/kg daily for six days))?
Its Brain dopamine is “no significant effect”.

What about the “endogenous catecholamine levels in the brain” value (catecholamines; brain, summary statement) of the same compound?
Its value is “effective in lowering”.

And the “decrease of norepinephrine over yohimbine” value (catecholamines; combined with yohimbine, up to 8 days of methyl ester treatment)?
Its value is “small additional decrease”.

What about the Heart norepinephrine (catecholamines; heart, multiple administration (10, 25 or 50 mg/kg daily for six days), any dose) of the same compound?
Its Heart norepinephrine is “not significantly changed”.

And the “reduction of norepinephrine in the heart” value (catecholamines; [3])?
The value was “no reduction”.

What about the “endogenous 5-HT levels in the brain and heart” value (Serotonin (5-HT); brain and heart, summary statement) of the same compound?
The value was “substantially unaltered”.

And the “Serotonin (5-HT) levels in the brain” value (Serotonin (5-HT); brain, multiple administration, even at the highest dose tested)?
The value was “not altered”.

Which stability [2] does the source give for `CC(C)(C)OC(=O)C(N)(CF)Cc1ccc(O)cc1` (centres unmarked) [tert-butyl 2-fluoromethyl-2-amino-3-(4-hydroxyphenyl)-propionate] here?
The stability was “relatively unstable”.

Which “selectivity (brain catecholamines versus heart catecholamines and 5-HT)” value (catecholamines) does the source give for `NC(CF)(Cc1ccc(O)cc1)C(=O)O` (stereo not drawn) [α-fluoromethyl tyrosine, 2-fluoromethyl-2-amino-3-(4-hydroxyphenyl)-propionic acid] here?
The value was “same degree of selectivity is not found”.

And the solubility in water (Solubility in water)?
Its solubility in water is “insoluble”.

What about the AADC inhibition (AADC) of the same compound?
Its AADC inhibition is “weak AADC inhibitor”.

With `NC(CF)(Cc1ccc(O)c(O)c1)C(=O)O` (centres unmarked) [Fluoromethyl dopa, reference compound] as the compound, how does the “selectivity (brain catecholamines versus heart catecholamines and 5-HT)” value (catecholamines) read?
The value was “does not exhibit the selectivity”.
